This passage reports IC50 results from US9169205B2, “Pyrrolidine derivatives, pharmaceutical compositions and uses thereof” (Boehringer Ingelheim International GmbH, priority 2012, dated 2015).

SMILES strings stand for the structures.

This test addresses human ACC2 (Homo sapiens (Human), UniProt O00763). The test is described as follows: ACC2 assay (spectrophotometric 384 well assay, NADH-linked kinetic method). The format is biochemical. As to conditions: hACC2 construct lacking 128 N-terminal amino acids, 25° C., 340 nm. Here is the method:
Spectrophotometric 384 Well Assay
Malonyl CoA formation by acetyl CoA carboxylases is stoichometrically linked to the consumption of ATP. ACC2 activity is measured in a NADH-linked kinetic method measuring ADP generated during the ACC reaction using a coupled lactate dehydrogenase/pyruvate kinase reaction.
The protein is then expressed in insect cells using a baculoviral expression system. Protein purification is performed by anion exchange.
All compounds are dissolved in dimethyl sulfoxide (DMSO) to a concentration of 10 mM.
The enzymatic reaction is then started by addition of a mixture of NADH, acetyl Coenzyme A (both 200 μM f.c.) and ATP (500 uM f.c.). The decrease of the optical density (slope S) is then determined at 25° C. at a wavelength of 340 nm over 15 minutes in a spectrophotometric reader.
Each assay microtiter plate contains wells with vehicle instead of compound as controls for the non-inhibited enzyme (100% CTL; ‘HIGH’) and wells without acetyl-CoA as controls for non-specific NADH degradation (0% CTL; ‘LOW’).

In general, IC50 refers to the midpoint of a concentration-inhibition curve. The low end stands for higher potency, the high end for lower potency.

Sequence of human ACC2 (O00763 129-2458): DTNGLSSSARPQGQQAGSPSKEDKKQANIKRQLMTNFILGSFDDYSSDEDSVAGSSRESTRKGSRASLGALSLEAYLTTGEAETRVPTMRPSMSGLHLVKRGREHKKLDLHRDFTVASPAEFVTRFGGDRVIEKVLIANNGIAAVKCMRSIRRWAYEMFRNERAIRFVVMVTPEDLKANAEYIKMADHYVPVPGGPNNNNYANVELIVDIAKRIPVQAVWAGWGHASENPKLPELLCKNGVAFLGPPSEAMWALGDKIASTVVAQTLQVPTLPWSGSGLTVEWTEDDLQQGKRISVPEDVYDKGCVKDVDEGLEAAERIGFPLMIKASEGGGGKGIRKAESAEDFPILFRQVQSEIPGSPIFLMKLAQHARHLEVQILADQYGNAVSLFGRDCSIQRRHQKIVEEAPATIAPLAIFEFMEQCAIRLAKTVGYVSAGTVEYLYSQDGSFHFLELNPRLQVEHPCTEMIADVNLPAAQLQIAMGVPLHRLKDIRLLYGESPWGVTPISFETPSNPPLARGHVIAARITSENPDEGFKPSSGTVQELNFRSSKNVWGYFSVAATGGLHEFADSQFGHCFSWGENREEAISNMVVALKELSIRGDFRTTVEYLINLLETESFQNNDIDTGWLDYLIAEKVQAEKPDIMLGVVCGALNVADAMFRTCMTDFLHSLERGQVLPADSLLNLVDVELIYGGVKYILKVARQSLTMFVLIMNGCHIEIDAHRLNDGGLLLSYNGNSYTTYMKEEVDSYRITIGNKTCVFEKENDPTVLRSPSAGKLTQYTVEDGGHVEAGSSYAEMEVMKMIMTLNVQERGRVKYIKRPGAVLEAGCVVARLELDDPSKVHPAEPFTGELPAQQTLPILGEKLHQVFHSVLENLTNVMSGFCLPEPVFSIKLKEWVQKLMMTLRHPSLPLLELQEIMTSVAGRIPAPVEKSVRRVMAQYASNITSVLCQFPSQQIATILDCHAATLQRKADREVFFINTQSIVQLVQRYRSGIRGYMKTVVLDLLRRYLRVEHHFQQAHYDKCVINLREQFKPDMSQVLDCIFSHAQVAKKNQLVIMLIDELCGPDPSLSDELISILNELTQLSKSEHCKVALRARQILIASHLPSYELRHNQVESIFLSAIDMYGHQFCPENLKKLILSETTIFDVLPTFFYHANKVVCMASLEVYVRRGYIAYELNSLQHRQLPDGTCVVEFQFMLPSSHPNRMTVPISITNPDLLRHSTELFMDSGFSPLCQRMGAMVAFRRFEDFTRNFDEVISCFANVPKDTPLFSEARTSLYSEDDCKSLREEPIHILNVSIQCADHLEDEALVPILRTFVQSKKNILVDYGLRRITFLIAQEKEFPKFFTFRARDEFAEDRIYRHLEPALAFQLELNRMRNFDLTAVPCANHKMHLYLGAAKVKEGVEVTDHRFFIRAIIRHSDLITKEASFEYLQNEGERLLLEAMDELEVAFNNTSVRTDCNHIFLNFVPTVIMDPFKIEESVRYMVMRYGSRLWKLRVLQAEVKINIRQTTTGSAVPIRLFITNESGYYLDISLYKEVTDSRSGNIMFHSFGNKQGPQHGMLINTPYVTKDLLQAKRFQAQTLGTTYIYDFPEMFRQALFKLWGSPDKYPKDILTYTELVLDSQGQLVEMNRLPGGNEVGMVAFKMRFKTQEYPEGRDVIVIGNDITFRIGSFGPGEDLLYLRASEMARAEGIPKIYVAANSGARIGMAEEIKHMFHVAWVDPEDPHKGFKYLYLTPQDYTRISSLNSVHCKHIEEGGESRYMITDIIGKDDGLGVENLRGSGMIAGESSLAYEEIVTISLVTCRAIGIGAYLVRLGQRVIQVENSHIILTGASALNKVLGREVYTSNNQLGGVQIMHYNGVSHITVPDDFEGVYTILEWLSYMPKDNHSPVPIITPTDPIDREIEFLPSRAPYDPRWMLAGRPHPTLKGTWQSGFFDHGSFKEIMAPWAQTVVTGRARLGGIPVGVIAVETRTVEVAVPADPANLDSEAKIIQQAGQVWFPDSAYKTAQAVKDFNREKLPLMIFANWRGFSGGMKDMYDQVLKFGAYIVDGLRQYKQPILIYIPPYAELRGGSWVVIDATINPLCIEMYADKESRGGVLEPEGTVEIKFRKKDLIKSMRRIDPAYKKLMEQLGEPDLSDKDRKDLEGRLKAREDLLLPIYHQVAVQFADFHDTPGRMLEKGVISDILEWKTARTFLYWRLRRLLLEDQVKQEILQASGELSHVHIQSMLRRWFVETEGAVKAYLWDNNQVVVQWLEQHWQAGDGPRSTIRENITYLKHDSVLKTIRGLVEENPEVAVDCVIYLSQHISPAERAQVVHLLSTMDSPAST

On to `CC(=O)N[C@@H](C)c1ccc(OC2CCN(c3ccc4c(c3F)OCO4)C2)cc1` (stereo partly drawn) [Example 1.72], for which the half-maximal inhibitory concentration (IC50) amounted to 558 nM.
Take `CC(=O)N[C@@H](C)c1ccc(OC2CCN(c3ccc(OC4CC4)cc3C#N)C2)cc1` (stereo partly drawn) [Example 1.73]: the IC50 is 230 nM.
The value for `CCOC1CN(c2ccc(OCC3CC3)cc2)CC1Oc1ccc([C@H](C)NC(C)=O)cc1` (stereo partly drawn) [Example 1.74] was 1680 nM; that for `CC(=O)N[C@@H](C)c1ccc(OC2CCN(c3ccc4c(c3)COC4)C2)cc1` (stereo partly drawn) [Example 1.75] was 709 nM; that for `COCCOC1CN(c2ccc(OCC3CC3)cc2)CC1Oc1ccc([C@H](C)NC(C)=O)cc1` (stereo partly drawn) [Example 1.77] was 749 nM.
The value for `CC(=O)N[C@@H](C)c1ccc(OC2CCN(c3ccc(OCC(F)(F)F)cc3)C2)cc1` (stereo partly drawn) [Example 1.78] was 546 nM; that for `CC(=O)N[C@@H](C)c1ccc(OC2CCN(c3ccc(OC(F)F)cc3)C2)cc1` (stereo partly drawn) [Example 1.79] was 496 nM.
`CC(=O)N[C@@H](C)c1ccc(OC2CCN(c3ccc4c(c3)OC(F)(F)O4)C2)cc1` (stereo partly drawn) [Example 1.80]: the IC50 was 574 nM.
In the case of `CC(=O)N[C@@H](C)c1ccc(OC2CCN(c3ccc(OCC4(C(F)(F)F)CC4)cc3)C2)cc1` (stereo partly drawn) [Example 1.81], the midpoint of inhibition, the IC50, lay at 804 nM.
For `CC(=O)N[C@@H](C)c1ccc(OC2CCN(c3cc4c(cc3C#N)OCCO4)C2)cc1` (stereo partly drawn) [Example 1.82], the IC50 was 1480 nM.
In turn, `CC(=O)N[C@@H](C)c1ccc(OC2CCN(c3ccc4c(c3C)OCCO4)C2)cc1` (stereo partly drawn) [Example 1.83] showed an IC50 of 350 nM.
With `CC(=O)N[C@@H](C)c1ccc(OC2CCN(c3ccc(OCC4CC4)cc3C)C2)cc1` (stereo partly drawn) [Example 1.84], the IC50 came out at 69 nM.
With `CC(=O)N[C@@H](C)c1ccc(OC2CCN(c3ccc(OC(C)C)cc3C)C2)cc1` (stereo partly drawn) [Example 1.85] the figure was 226 nM.
Consider `CCCOc1ccc(N2CCC(Oc3ccc([C@H](C)NC(C)=O)cc3)C2)c(C)c1` (stereo partly drawn) [Example 1.86], for which the IC50 was found to be 65 nM.
The molecule `CCOc1ccc(N2CCC(Oc3ccc([C@H](C)NC(C)=O)cc3)C2)c(C)c1` (stereo partly drawn) [Example 1.87] showed an IC50 of 108 nM.
In turn, `CC(=O)N[C@@H](C)c1ccc(OC2CCN(c3ccc(OCCCF)cc3C)C2)cc1` (stereo partly drawn) [Example 1.88] had an IC50 of 102 nM.
For the molecule `CC(=O)N[C@@H](C)c1ccc(OC2CCN(c3ccc(OCC(C)(C)F)cc3)C2)cc1` (stereo partly drawn) [Example 1.89], the 50% inhibitory concentration (IC50) was 224 nM.
In turn, `CC(=O)N[C@@H](C)c1ccc(OC2CCN(c3ccc(OCCC(F)F)cc3)C2)cc1` (stereo partly drawn) [Example 1.90] gave a 50% inhibitory concentration (IC50) of 40 nM.
The value for `COc1cc(F)c(N2CCC(Oc3ccc([C@H](C)NC(C)=O)cc3)C2)cc1F` (stereo partly drawn) [Example 1.92] was 384 nM; that for `COc1ccc(N2CCC(Oc3ccc([C@H](C)NC(C)=O)cc3)C2)cc1F` (stereo partly drawn) [Example 1.93] was 601 nM; that for `CC(=O)N[C@@H](C)c1ccc(OC2CCN(c3cc(C(F)F)ccc3F)C2)cc1` (stereo partly drawn) [Example 1.94] was 221 nM.
Regarding `CC(=O)N[C@@H](C)c1ccc(OC2CCN(c3cccc(C(F)F)c3)C2)cc1` (stereo partly drawn) [Example 1.95], the IC50 is 166 nM.
The value for `CC(=O)N[C@@H](C)c1ccc(OC2CCN(c3ccc(OCC4CC(F)(F)C4)cc3)C2)cc1` (stereo partly drawn) [Example 1.96] was 61 nM; that for `CC(=O)N[C@@H](C)c1ccc(OC2CCN(c3ccc(O[C@H]4CCOC4)cc3)C2)cc1` (stereo partly drawn) [Example 1.97] was 244 nM.
With `CC(=O)N[C@@H](C)c1ccc(OC2CCN(c3ccc(OCC4CC4(F)F)c(F)c3)C2)cc1` (stereo partly drawn) [Example 1.98] the figure was 64 nM.
The value for `CCOc1ccc(N2CCC(Oc3ccc([C@H](C)NC(C)=O)cc3)C2)cc1F` (stereo partly drawn) [Example 1.99] was 383 nM.
For the molecule `CC(=O)N[C@@H](C)c1ccc(OC2CCN(c3ccc(OCC4CC4)c(F)c3)C2)cc1` (stereo partly drawn) [Example 1.100], it took 87 nM to reach half-maximal inhibition (IC50).
As for `CC(=O)N[C@@H](C)c1ccc(OC2CCN(c3ccc4c(c3)C(C)(C)CO4)C2)cc1` (stereo partly drawn) [Example 1.101], the IC50 turned out to be 269 nM.
As for `CC(=O)N[C@@H](C)c1ccc(OC2CCN(c3ccc(OCCC(F)F)cc3)C2)nc1` (stereo partly drawn) [Example 1.102], the IC50 turned out to be 212 nM.
In turn, `CC(=O)N[C@@H](C)c1ccc(OC2CCN(c3ccc(OC4CC4)cc3C)C2)nc1` (stereo partly drawn) [Example 1.103] yielded an IC50 of 231 nM.
The molecule `CC(=O)N[C@@H](C)c1ccc(O[C@H]2CCN(c3ccc(OC4CC4)cc3C)C2)cc1` [Example 1.104] came in with an IC50 of 363 nM.
In the case of `CC(=O)Nc1nc(C)c(C(=O)N[C@@H](C)c2ccc(OC3CCN(c4ccc(OCC5CC5)cc4)C3)cc2)s1` (stereo partly drawn) [Example 2.1], the IC50 came out at 40 nM.
The value for `C[C@H](NC(=O)C1CCC(=O)N1)c1ccc(O[C@@H]2CCN(c3ccc(OCC4CC4)cc3)C2)cc1` (stereo partly drawn) [Example 2.2] was 671 nM; that for `C[C@H](NC(=O)Cc1cnccn1)c1ccc(O[C@@H]2CCN(c3ccc(OCC4CC4)cc3)C2)cc1` [Example 2.3] was 399 nM.
The molecule `CC(=O)Nc1cccc(C(=O)N[C@@H](C)c2ccc(O[C@@H]3CCN(c4ccc(OCC5CC5)cc4)C3)cc2)c1C` [Example 2.4] showed an IC50 of 517 nM.
With `COc1ccccc1C(=O)N[C@@H](C)c1ccc(O[C@@H]2CCN(c3ccc(OCC4CC4)cc3)C2)cc1` [Example 2.5] the figure was 800 nM; with `CC(=O)N[C@H]1C[C@@H](C(=O)N[C@@H](C)c2ccc(O[C@@H]3CCN(c4ccc(OCC5CC5)cc4)C3)cc2)NC1=O` [Example 2.6], 705 nM.
The molecule `C[C@H](NC(=O)Cc1cncnc1)c1ccc(O[C@@H]2CCN(c3ccc(OCC4CC4)cc3)C2)cc1` [Example 2.7] came in with an IC50 of 121 nM.
`Cc1cc(C(=O)N[C@@H](C)c2ccc(O[C@@H]3CCN(c4ccc(OCC5CC5)cc4)C3)cc2)[nH]n1` [Example 2.8] displayed an IC50 of 330 nM.
Molecule `Cc1cc(CC(=O)N[C@@H](C)c2ccc(O[C@@H]3CCN(c4ccc(OCC5CC5)cc4)C3)cc2)on1` [Example 2.9] showed an IC50 of 138 nM.
With `C[C@H](NC(=O)C1(C)CC1)c1ccc(O[C@@H]2CCN(c3ccc(OCC4CC4)cc3)C2)cc1` [Example 2.10] the figure was 79 nM; with `C[C@H](NC(=O)c1cnn(C)c1)c1ccc(O[C@@H]2CCN(c3ccc(OCC4CC4)cc3)C2)cc1` [Example 2.11], 132 nM; with `C[C@H](NC(=O)Cc1cc[nH]c1)c1ccc(O[C@@H]2CCN(c3ccc(OCC4CC4)cc3)C2)cc1` [Example 2.12], 397 nM.
As for `C[C@H](NC(=O)c1cc[nH]n1)c1ccc(O[C@@H]2CCN(c3ccc(OCC4CC4)cc3)C2)cc1` [Example 2.13], the IC50 is 359 nM.
With `CNC(=O)c1cccc(C(=O)N[C@@H](C)c2ccc(O[C@@H]3CCN(c4ccc(OCC5CC5)cc4)C3)cc2)n1` [Example 2.14] the figure was 705 nM.
On to `Cc1cc(C(=O)N[C@@H](C)c2ccc(O[C@@H]3CCN(c4ccc(OCC5CC5)cc4)C3)cc2)no1` [Example 2.15], for which the IC50 was 315 nM.
Regarding `C[C@H](NC(=O)C1(C(=O)N(C)C)CC1)c1ccc(O[C@@H]2CCN(c3ccc(OCC4CC4)cc3)C2)cc1` [Example 2.16], the IC50 was found to be 864 nM.
Regarding `COc1cc(C(=O)N[C@@H](C)c2ccc(O[C@@H]3CCN(c4ccc(OCC5CC5)cc4)C3)cc2)on1` [Example 2.17], half-maximal inhibition (IC50) required 346 nM.
The molecule `Cc1ncncc1C(=O)N[C@@H](C)c1ccc(O[C@@H]2CCN(c3ccc(OCC4CC4)cc3)C2)cc1` [Example 2.18] returned an IC50 of 551 nM.
For the molecule `CC(C)Oc1ccc(N2CC[C@@H](Oc3ccc([C@H](C)NC(=O)C(F)(F)F)cc3)C2)cc1` [Example 2.19], the IC50 is 124 nM.
With `CCC(=O)N[C@@H](C)c1ccc(O[C@@H]2CCN(c3ccc(OC(C)C)cc3)C2)cc1` [Example 2.20] the figure was 774 nM; with `Cc1oncc1C(=O)N[C@@H](C)c1ccc(O[C@@H]2CCN(c3ccc(OCC4CC4)cc3)C2)cc1` [Example 2.21], 45 nM.
The value for `C[C@H](NC(=O)c1cnco1)c1ccc(O[C@@H]2CCN(c3ccc(OCC4CC4)cc3)C2)cc1` [Example 2.22] was 30 nM; that for `CC(C#N)C(=O)N[C@@H](C)c1ccc(O[C@@H]2CCN(c3ccc(OCC4CC4)cc3)C2)cc1` (stereo partly drawn) [Example 2.23] was 56 nM.
`CCC(=O)N[C@@H](C)c1ccc(O[C@@H]2CCN(c3ccc(OCC4CC4)cc3)C2)cc1` [Example 2.24] had an IC50 of 40 nM.
For `C[C@H](NC(=O)C(F)F)c1ccc(O[C@@H]2CCN(c3ccc(OCC4CC4)cc3)C2)cc1` [Example 2.25], the IC50 was 38 nM.
Molecule `Cc1[nH]ncc1C(=O)N[C@@H](C)c1ccc(O[C@@H]2CCN(c3ccc(OCC4CC4)cc3)C2)cc1` [Example 2.26] had an IC50 of 47 nM.
`C[C@H](NC(=O)c1cnc(N)o1)c1ccc(O[C@@H]2CCN(c3ccc(OCC4CC4)cc3)C2)cc1` [Example 2.27] returned an IC50 of 107 nM.
Molecule `C[C@H](NC(=O)c1ccns1)c1ccc(O[C@@H]2CCN(c3ccc(OCC4CC4)cc3)C2)cc1` [Example 2.28] had a half-maximal inhibitory concentration (IC50) of 105 nM.
The value for `C[C@H](NC(=O)CO)c1ccc(O[C@@H]2CCN(c3ccc(OCC4CC4)cc3)C2)cc1` [Example 2.29] was 400 nM; that for `C[C@H](O)C(=O)N[C@@H](C)c1ccc(O[C@@H]2CCN(c3ccc(OCC4CC4)cc3)C2)cc1` [Example 2.30] was 793 nM; that for `C[C@H](NC(=O)CC#N)c1ccc(O[C@@H]2CCN(c3ccc(OCC4CC4)cc3)C2)cc1` [Example 2.31] was 71 nM.
As for `CC(O)C(=O)N[C@@H](C)c1ccc(O[C@@H]2CCN(c3ccc(OCC4CC4)cc3)C2)cc1` (stereo partly drawn) [Example 2.33], the IC50 was determined as 793 nM.
